# Test results reported in the OligoGym collection.
# HELM strings list units from the 5' end as sugar, base in round brackets, then linkage (d deoxyribose, r ribose, m 2'-O-methyl, p phosphodiester). Strings are as the collection lists them; they lack the last nucleoside at the 3' end of the tested compound. [moe] = 2'-O-(2-methoxyethyl) (MOE); [sp] = phosphorothioate linkage; [m5C] = 5-methylcytosine
# Biological target: UBE3A-ATS
# Assay: mouse, dose not given
# Details: ASO
row,Substance,3 h FOB score [score 0-7]
1,RNA1{[moe](A)[sp].[moe]([m5C])p.[moe](T)p.[moe](G)p.[moe]([m5C])p.[moe](T)p.d(T)[sp].d([m5C])[sp].d(A)[sp].d([m5C])[sp].d([m5C])[sp].d(A)[sp].d(T)[sp].d(T)[sp].d(T)[sp].d(T)[sp].[moe](G)p.[moe](A)[sp].[moe]([m5C])}$$$$ (last 3' nucleoside missing),1
2,RNA1{[moe](A)[sp].[moe]([m5C])p.[moe](T)p.[moe](G)p.[moe]([m5C])p.d(T)[sp].d(T)[sp].d([m5C])[sp].d(A)[sp].d([m5C])[sp].d([m5C])[sp].d(A)[sp].d(T)[sp].d(T)[sp].d(T)[sp].[moe](T)p.[moe](G)p.[moe](A)[sp].[moe]([m5C])}$$$$ (last 3' nucleoside missing),1.7
3,RNA1{[moe](A)[sp].[moe]([m5C])p.[moe](T)p.[moe](G)p.d([m5C])[sp].d(T)[sp].d(T)[sp].d([m5C])[sp].d(A)[sp].d([m5C])[sp].d([m5C])[sp].d(A)[sp].d(T)[sp].d(T)[sp].[moe](T)p.[moe](T)p.[moe](G)p.[moe](A)[sp].[moe]([m5C])}$$$$ (last 3' nucleoside missing),1
4,RNA1{[moe](A)[sp].[moe]([m5C])p.[moe](T)p.[moe](T)p.[moe](T)p.d(A)[sp].d(T)[sp].d(A)[sp].d(G)[sp].d(T)[sp].d(G)[sp].d(T)[sp].d(G)[sp].d(G)[sp].d(A)[sp].[moe](T)p.[moe](G)p.[moe](G)[sp].[moe](T)}$$$$ (last 3' nucleoside missing),6.8
5,RNA1{[moe](A)[sp].[moe]([m5C])p.[moe](T)p.[moe](T)p.[moe](T)p.d([m5C])[sp].d(A)[sp].d(T)[sp].d([m5C])[sp].d(A)[sp].d(G)[sp].d(T)[sp].d(T)[sp].d(A)[sp].d(G)[sp].[moe](T)p.[moe]([m5C])p.[moe](A)[sp].[moe](G)}$$$$ (last 3' nucleoside missing),5.2
6,RNA1{[moe](A)[sp].[moe]([m5C])p.[moe](T)p.[moe](T)p.[moe]([m5C])p.d(A)[sp].d(T)[sp].d([m5C])[sp].d(A)[sp].d(A)[sp].d(T)[sp].d(A)[sp].d(T)[sp].d(T)[sp].d(T)[sp].[moe]([m5C])p.[moe]([m5C])p.[moe]([m5C])[sp].[moe]([m5C])}$$$$ (last 3' nucleoside missing),0
7,RNA1{[moe](A)[sp].[moe]([m5C])p.[moe](T)p.[moe](T)p.[moe]([m5C])p.d(T)[sp].d([m5C])[sp].d(A)[sp].d(T)[sp].d(T)[sp].d([m5C])[sp].d(T)[sp].d([m5C])[sp].d(T)[sp].d([m5C])[sp].[moe]([m5C])p.[moe](A)p.[moe]([m5C])[sp].[moe]([m5C])}$$$$ (last 3' nucleoside missing),0
8,RNA1{[moe](A)[sp].[moe]([m5C])p.[moe](T)p.[moe]([m5C])p.[moe](A)p.d(T)[sp].d([m5C])[sp].d(A)[sp].d(T)[sp].d(G)[sp].d(A)[sp].d(T)[sp].d([m5C])[sp].d(T)[sp].d(T)[sp].[moe](G)p.[moe](G)p.[moe](T)[sp].[moe](A)}$$$$ (last 3' nucleoside missing),3
9,RNA1{[moe](A)[sp].[moe]([m5C])p.[moe]([m5C])p.[moe](A)p.[moe](T)p.d(T)[sp].d(T)[sp].d(T)[sp].d(G)[sp].d(A)[sp].d([m5C])[sp].d([m5C])[sp].d(T)[sp].d(T)[sp].d([m5C])[sp].[moe](T)p.[moe](T)p.[moe](A)[sp].[moe](G)}$$$$ (last 3' nucleoside missing),0
10,RNA1{[moe](A)[sp].[moe]([m5C])p.[moe]([m5C])p.[moe]([m5C])p.[moe]([m5C])p.d(T)[sp].d(A)[sp].d(G)[sp].d(G)[sp].d(A)[sp].d(A)[sp].d(T)[sp].d(A)[sp].d(A)[sp].d(T)[sp].[moe](G)p.[moe](T)p.[moe](T)[sp].[moe](G)}$$$$ (last 3' nucleoside missing),2
